Measurements as given in patent US8952024B2, “Herbicidal pyrimidone derivatives” (E I du Pont de Nemours and Company, priority 2009, dated 2015).

What was measured:
Assay in all cases: Test B pre-/postemergence plant response
Format in all cases: in vivo
[1] = system: yellow nutsedge (Cyperus esculentus); settings: for Plant response rating, Nutsedge, Yellow: Postemergence, scale 0 to 100 (0 no effect, 100 complete control)
How it was run: (§1)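 Ratings reflect visual comparison with untreated controls 13 to 15 days after application, from 0 (no effect) to 100 (complete control). Application was preemergence to seeded loam/sand soil or postemergence to 1- to 4-leaf plants, with compound in a non-phytotoxic, surfactant-containing solvent.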

[2] = system: green foxtail (Setaria viridis)
How it was run: as §1

[3] = system: velvetleaf (Abutilon theophrasti); settings: for Plant response rating, Velvetleaf: Postemergence, scale 0 to 100 (0 no effect, 100 complete control)
How it was run: as §1

[4] = system: Surinam grass (Brachiaria decumbens); settings: for Plant response rating, Surinam Grass: Postemergence, scale 0 to 100 (0 no effect, 100 complete control)
How it was run: as §1

[5] = system: goosegrass (Eleusine indica)
How it was run: as §1

corn (Zea mays) = system: corn (Zea mays)
How it was run: as §1

[6] = system: johnsongrass (Sorghum halepense)
How it was run: as §1

wild oat (Avena fatua) = system: wild oat (Avena fatua)
How it was run: as §1

[7] = system: woolly cupgrass (Eriochloa villosa); settings: for Plant response rating, Cupgrass, Woolly: Postemergence, scale 0 to 100 (0 no effect, 100 complete control)
How it was run: as §1

[8] = system: downy bromegrass (Bromus tectorum)
How it was run: as §1

[9] = system: large crabgrass (Digitaria sanguinalis)
How it was run: as §1

[10] = system: lambsquarters (Chenopodium album)
How it was run: as §1

soybean (Glycine max) = settings: for Plant response rating, Soybean: Postemergence, scale 0 to 100 (0 no effect, 100 complete control)
How it was run: as §1

kochia (Kochia scoparia) = system: kochia (Kochia scoparia)
How it was run: as §1

[11] = system: blackgrass (Alopecurus myosuroides)
How it was run: as §1

[12] = system: morningglory (Ipomoea coccinea)
How it was run: as §1

[13] = system: pigweed (Amaranthus retroflexus)
How it was run: as §1

[14] = 62 g ai/ha, postemergence, 0 is no effect, 100 is complete control, 13 to 15 days
[15] = 31 g ai/ha, postemergence, scale 0 to 100, 0 is no effect, 100 is complete control
[16] = Postemergence, 125 g ai/ha, scale 0 to 100 (0 no effect, 100 complete control)
[17] = Postemergence, 250 g ai/ha, scale 0 to 100 (0 no effect, 100 complete control)

O=C1CCCC(O)=C1C(=O)c1cnc(-c2cccs2)n(CC2CCCO2)c1=O (stereo not drawn) [Compound 109]
65: Nutsedge, Yellow plant response rating (0 to 100 scale) [1, 14] | Surinam Grass plant response rating (0 to 100 scale) [4, 14] | Plant response rating, Surinam Grass ([4]; 125 g ai/ha) | Plant response rating, Goosegrass [5, 15] | Plant response rating, Crabgrass, Large [9, 15]
80: Plant response rating, Nutsedge, Yellow ([1]; 250 g ai/ha) | Foxtail, Green plant response rating (0 to 100 scale) [2, 14] | Plant response rating, Surinam Grass ([4]; 250 g ai/ha) | Plant response rating, Goosegrass [5, 16]
75: Plant response rating, Nutsedge, Yellow ([1]; 125 g ai/ha) | Goosegrass plant response rating (0 to 100 scale) [5, 14] | Plant response rating, Johnsongrass [6, 17] | Plant response rating, Cupgrass, Woolly ([7]; 250 g ai/ha) | Crabgrass, Large plant response rating (0 to 100 scale) [9, 14] | Plant response rating, Crabgrass, Large [9, 16] | Kochia plant response rating (0 to 100 scale) (kochia (Kochia scoparia); [14])
0: Plant response rating, Corn (corn (Zea mays); [15]) | Plant response rating, Oat, Wild (wild oat (Avena fatua); [15]) | Oat, Wild plant response rating (0 to 100 scale) (wild oat (Avena fatua); [14]) | Plant response rating, Bromegrass, Downy [8, 15] | Bromegrass, Downy plant response rating (0 to 100 scale) [8, 14] | Plant response rating, Blackgrass [11, 15]
5: Plant response rating, Johnsongrass [6, 15] | Plant response rating, Bromegrass, Downy [8, 16] | Plant response rating, Bromegrass, Downy [8, 17] | Blackgrass plant response rating (0 to 100 scale) [11, 14]
15: Corn plant response rating (0 to 100 scale) (corn (Zea mays); [14])
60: Plant response rating, Corn (corn (Zea mays); [16]) | Plant response rating, Corn (corn (Zea mays); [17]) | Cupgrass, Woolly plant response rating (0 to 100 scale) [7, 14] | Plant response rating, Cupgrass, Woolly ([7]; 125 g ai/ha)
95: Soybean plant response rating (0 to 100 scale) (soybean (Glycine max); [14])
98: Plant response rating, Foxtail, Green [2, 17] | Velvetleaf plant response rating (0 to 100 scale) [3, 14] | Plant response rating, Lambsquarters [10, 15] | Lambsquarters plant response rating (0 to 100 scale) [10, 14] | Plant response rating, Soybean (soybean (Glycine max); 125 g ai/ha) | Plant response rating, Kochia (kochia (Kochia scoparia); [17]) | Morningglory plant response rating (0 to 100 scale) [12, 14]
30: Johnsongrass plant response rating (0 to 100 scale) [6, 14] | Plant response rating, Oat, Wild (wild oat (Avena fatua); [16])
85: Plant response rating, Foxtail, Green [2, 16] | Plant response rating, Goosegrass [5, 17] | Plant response rating, Crabgrass, Large [9, 17] | Plant response rating, Kochia (kochia (Kochia scoparia); [16])
50: Plant response rating, Johnsongrass [6, 16] | Plant response rating, Blackgrass [11, 17]
20: Plant response rating, Foxtail, Green [2, 15]
100: Plant response rating, Velvetleaf ([3]; 125 g ai/ha) | Plant response rating, Velvetleaf ([3]; 250 g ai/ha) | Plant response rating, Lambsquarters [10, 16] | Plant response rating, Lambsquarters [10, 17] | Plant response rating, Soybean (soybean (Glycine max); 250 g ai/ha) | Plant response rating, Morningglory [12, 16] | Plant response rating, Morningglory [12, 17] | Plant response rating, Pigweed [13, 15] | Pigweed plant response rating (0 to 100 scale) [13, 14] | Plant response rating, Pigweed [13, 16] | Plant response rating, Pigweed [13, 17]
40: Plant response rating, Oat, Wild (wild oat (Avena fatua); [17]) | Plant response rating, Blackgrass [11, 16]
70: Plant response rating, Kochia (kochia (Kochia scoparia); [15]) | Plant response rating, Morningglory [12, 15]
